Structures are written as SMILES.

In the test the test system is OPM-2. The test can be described thus: Cell Viability Assay (OPM-2 10 FBS). It is filed as cell-based, human. The settings on record: OPM-2 cells, 16 h, CellTiter-Glo, read-out: OPM-2 10% FBS IC50 IP. Here is the method:
Cell Viability Assay (OPM-2 10 FBS)
The human multiple myeloma cell line, OPM-2, was cultured in complete growth medium containing RPMI 1640 and 10% fetal bovine serum (FBS). Cells were seeded into 384-well plates at 3000 cells/well density in complete growth medium containing 10% FBS, and incubated for 16 h with serially diluted test compounds in a 37° C. incubator with 5% CO2. Cell viability was tested using CellTiter-Glo® assay (Promega, Madison, Wis.) according to the manufacturer recommendations. Luminescence was determined using an EnVision® Multilabel plate reader 25 min after the addition of detection reagent. IC50 values were then calculated with Xlfit using a logistical 4-parameter fit model in GraphPad Prism (GraphPad Software, San Diego, Calif.) or in Genedata Screener® (Genedata, Basel, Switzerland).
As to `C[C@@H]1[C@@H](C)CCC[C@H]([C@H]2OC[C@@H](N3CCC3)CO2)[C@@H]2CC[C@H]2CN2C[C@@]3(CCCc4cc(Cl)ccc43)COc3ccc(cc32)C(=O)NS1(=O)=O` [Example 20, (1S,3′R,6′R,7′S,11′S,12′R)-7′-(cis-5-(1-azetidinyl)-1,3-dioxan-2-yl)-6-chloro-11′,12′-dimethyl-3,4-dihydro-2H,15′H-spiro[naphthalene-1,22′-[20]oxa[13]thia[1,14]diazatetracyclo [14.7.2.0~3,6~.0~19,24~]pentacosa[16,18,24]trien]-15′-one 13′,13′-dioxide], the IC50 stood at 41 nM.

For the compound `C[C@@H]1CS(=O)(=O)NC(=O)c2ccc3c(c2)N(C[C@@H]2CC[C@H]2[C@@H]([C@H]2OC[C@@H](N(C)C)CO2)CC[C@@H]1C)C[C@@]1(CCCc2cc(Cl)ccc21)CO3` [Example 84, (1S,3′R,6′R,7′S,10′S,11′S)-6-chloro-7′-(cis-5-(dimethylamino)-1,3-dioxan-2-yl)-10′,11′-dimethyl-3,4-dihydro-2H,15′H-spiro[naphthalene-1,22′-[20]oxa[13]thia[1,14]diazatetracyclo [14.7.2.0~3,6~.0~19,24~]pentacosa[16,18,24]trien]-15′-one 13′,13′-dioxide], the IC50 was determined as 145 nM.

Regarding `COCC[C@@H]1[C@@H](C)CCC[C@H]([C@H]2OC[C@@H](N(C)C)CO2)[C@@H]2CC[C@H]2CN2C[C@@]3(CCCc4cc(Cl)ccc43)COc3ccc(cc32)C(=O)NS1(=O)=O` [Example 82, (1S,3′R,6′R,7′S,11′S,12′R)-6-chloro-7′-(cis-5-(dimethylamino)-1,3-dioxan-2-yl)-12′-(2-methoxyethyl)-11′-methyl-3,4-dihydro-2H,15′H-spiro[naphthalene-1,22′-[20]oxa[13]thia[1,14]diazatetracyclo [14.7.2.0~3,6~.0~19,24~]pentacosa[16,18,24]trien]-15′-one 13′,13′-dioxide], the IC50 is 33 nM.

Turning to `C[C@@H]1[C@@H](C)CCC[C@H]([C@H]2OC[C@@H](N3CC(F)(F)C3)CO2)[C@@H]2CC[C@H]2CN2C[C@@]3(CCCc4cc(Cl)ccc43)COc3ccc(cc32)C(=O)NS1(=O)=O` [Example 31, (1S,3′R,6′R,7′S,11′S,12′R)-6-chloro-7′-(cis-5-(3,3-difluoro-1-azetidinyl)-1,3-dioxan-2-yl)-11′,12′-dimethyl-3,4-dihydro-2H,15′H-spiro[naphthalene-1,22′-[20]oxa[13]thia[1,14]diazatetracyclo [14.7.2.0~3,6~.0~19,24~]pentacosa[16,18,24]trien]-15′-one 13′,13′-dioxide], the IC50 turned out to be 204 nM.

As for `C[C@@H]1CS(=O)(=O)NC(=O)c2ccc3c(c2)N(C[C@@H]2CC[C@H]2[C@@H]([C@H]2OC[C@@H](N(C)C)CO2)CC[C@@H]1C)C[C@@]1(CCCc2cc(Cl)ccc21)CO3` [Example 85, (1S,3′R,6′R,7′S,10′S,11′S)-6-chloro-7′-(cis-5-(dimethylamino)-1,3-dioxan-2-yl)-10′,11′-dimethyl-3,4-dihydro-2H,15′H-spiro[naphthalene-1,22′-[20]oxa[13]thia[1,14]diazatetracyclo [14.7.2.0~3,6~.0~19,24~]pentacosa[16,18,24]trien]-15′-one 13′,13′-dioxide], the IC50 stood at 1090 nM.

Take `COC[C@@H]1[C@@H](C)CCC[C@H]([C@H]2OC[C@@H](N(C)C)CO2)[C@@H]2CC[C@H]2CN2C[C@@]3(CCCc4cc(Cl)ccc43)COc3ccc(cc32)C(=O)NS1(=O)=O` [Example 92, (1S,3′R,6′R,7′S,11′S,12′S)-6-chloro-7′-(cis-5-(dimethylamino)-1,3-dioxan-2-yl)-12′-(methoxymethyl)-11′-methyl-3,4-dihydro-2H,15′H-spiro[naphthalene-1,22′-[20]oxa[13]thia[1,14]diazatetracyclo [14.7.2.0~3,6~.0~19,24~]pentacosa[16,18,24]trien]-15′-one 13′,13′-dioxide]: the IC50 worked out at 988 nM.

Turning to `COC1CN([C@H]2CO[C@@H]([C@H]3CCC[C@H](C)[C@@H](C)S(=O)(=O)NC(=O)c4ccc5c(c4)N(C[C@@H]4CC[C@H]43)C[C@@]3(CCCc4cc(Cl)ccc43)CO5)OC2)C1` [Example 52, (1S,3′R,6′R,7′S,11′S,12′R)-6-chloro-7′-(cis-5-(3-methoxy-1-azetidinyl)-1,3-dioxan-2-yl)-11′,12′-dimethyl-3,4-dihydro-2H,15′H-spiro[naphthalene-1,22′-[20]oxa[13]thia[1,14]diazatetracyclo [14.7.2.0~3,6~.0~19,24~]pentacosa[16,18,24]trien]-15′-one 13′,13′-dioxide], the IC50 came out at 59 nM.

For the compound `COCC[C@@H]1[C@@H](C)CCC[C@H]([C@H]2OC[C@@H](N(C)C)CO2)[C@@H]2CC[C@H]2CN2C[C@@]3(CCCc4cc(Cl)ccc43)COc3ccc(cc32)C(=O)NS1(=O)=O` (stereo in doubt) [Example 83], the IC50 worked out at 540 nM.

On to `C[C@@H]1[C@@H](C)CCC[C@H]([C@H]2OC[C@@H](N3CCC3)CO2)[C@@H]2CC[C@H]2CN2C[C@@]3(CCCc4cc(Cl)ccc43)COc3ccc(cc32)C(=O)NS1(=O)=O` [Example 21, (1S,3′R,6′R,7′S,11′S,12′R)-7′-(cis-5-(1-azetidinyl)-1,3-dioxan-2-yl)-6-chloro-11′,12′-dimethyl-3,4-dihydro-2H,15′H-spiro[naphthalene-1,22′-[20]oxa[13]thia[1,14]diazatetracyclo [14.7.2.0~3,6~.0~19,24~]pentacosa[16,18,24]trien]-15′-one 13′,13′-dioxide], for which the IC50 came out at 521 nM.

For the compound `COC1CN([C@H]2CO[C@@H]([C@H]3CCC[C@H](C)[C@@H](C)S(=O)(=O)NC(=O)c4ccc5c(c4)N(C[C@@H]4CC[C@H]43)C[C@@]3(CCCc4cc(Cl)ccc43)CO5)OC2)C1` [Example 53, (1S,3′R,6′R,7′S,11′S,12′R)-6-chloro-7′-(cis-5-(3-methoxy-1-azetidinyl)-1,3-dioxan-2-yl)-11′,12′-dimethyl-3,4-dihydro-2H,15′H-spiro[naphthalene-1,22′-[20]oxa[13]thia[1,14]diazatetracyclo [14.7.2.0~3,6~.0~19,24~]pentacosa[16,18,24]trien]-15′-one 13′,13′-dioxide], the IC50 worked out at 184 nM.

For the compound `C[C@@H]1[C@@H](C)CCC[C@H]([C@H]2OC[C@@H](N3CC(N(C)C)C3)CO2)[C@@H]2CC[C@H]2CN2C[C@@]3(CCCc4cc(Cl)ccc43)COc3ccc(cc32)C(=O)NS1(=O)=O` [Example 68, (1S,3′R,6′R,7′S,11′S,12′R)-6-chloro-7′-(cis-5-(3-(dimethylamino)-1-azetidinyl)-1,3-dioxan-2-yl)-11′,12′-dimethyl-3,4-dihydro-2H,15′H-spiro[naphthalene-1,22′-[20]oxa[13]thia[1,14]diazatetracyclo [14.7.2.0~3,6~.0~19,24~]pentacosa[16,18,24]trien]-15′-one 13′,13′-dioxide], the IC50 amounted to 517 nM.

Regarding `COC1CN([C@H]2CO[C@@H]([C@H]3CCC[C@H](C)[C@@H](C)S(=O)(=O)NC(=O)c4ccc5c(c4)N(C[C@@H]4CC[C@H]43)C[C@@]3(CCCc4cc(Cl)ccc43)CO5)OC2)C1` [Example 54, (1S,3′R,6′R,7′S,11′S,12′R)-6-chloro-7′-(cis-5-(3-methoxy-1-azetidinyl)-1,3-dioxan-2-yl)-11′,12′-dimethyl-3,4-dihydro-2H,15′H-spiro[naphthalene-1,22′-[20]oxa[13]thia[1,14]diazatetracyclo [14.7.2.0~3,6~.0~19,24~]pentacosa[16,18,24]trien]-15′-one 13′,13′-dioxide], the IC50 was found to be 547 nM.

Turning to `CCN(CC)[C@H]1CO[C@@H]([C@H]2CCC[C@H](C)[C@@H](C)S(=O)(=O)NC(=O)c3ccc4c(c3)N(C[C@@H]3CC[C@H]32)C[C@@]2(CCCc3cc(Cl)ccc32)CO4)OC1` [Example 58, (1S,3′R,6′R,7′S,11′S,12′R)-6-chloro-7′-(cis-5-(diethylamino)-1,3-dioxan-2-yl)-11′,12′-dimethyl-3,4-dihydro-2H,15′H-spiro[naphthalene-1,22′-[20]oxa[13]thia[1,14]diazatetracyclo [14.7.2.0~3,6~.0~19,24~]pentacosa[16,18,24]trien]-15′-one 13′,13′-dioxide], the IC50 worked out at 512 nM.

Consider `C[C@@H]1[C@@H](C)CCC[C@H]([C@H]2OC[C@@H](N(C)C)CO2)[C@@H]2CC[C@H]2CN2C[C@@]3(CCCc4cc(Cl)ccc43)COc3ccc(nc32)C(=O)NS1(=O)=O` (stereo in doubt) [Example 95], for which the half-maximal inhibitory concentration (IC50) stood at 108 nM.

As to `C[C@@H]1[C@@H](C)CCC[C@H]([C@H]2OC[C@@H](N3CC(F)(F)C3)CO2)[C@@H]2CC[C@H]2CN2C[C@@]3(CCCc4cc(Cl)ccc43)COc3ccc(cc32)C(=O)NS1(=O)=O` [Example 32, (1S,3′R,6′R,7′S,11′S,12′R)-6-chloro-7′-(cis-5-(3,3-difluoro-1-azetidinyl)-1,3-dioxan-2-yl)-11′,12′-dimethyl-3,4-dihydro-2H,15′H-spiro[naphthalene-1,22′-[20]oxa[13]thia[1,14]diazatetracyclo [14.7.2.0~3,6~.0~19,24~]pentacosa[16,18,24]trien]-15′-one 13′,13′-dioxide], the IC50 was 1940 nM.

With `CCN(CC)[C@H]1CO[C@@H]([C@H]2CCC[C@H](C)[C@@H](C)S(=O)(=O)NC(=O)c3ccc4c(c3)N(C[C@@H]3CC[C@H]32)C[C@@]2(CCCc3cc(Cl)ccc32)CO4)OC1` [Example 57, (1S,3′R,6′R,7′S,11′S,12′R)-6-chloro-7′-(cis-5-(diethylamino)-1,3-dioxan-2-yl)-11′,12′-dimethyl-3,4-dihydro-2H,15′H-spiro[naphthalene-1,22′-[20]oxa[13]thia[1,14]diazatetracyclo [14.7.2.0~3,6~.0~19,24~]pentacosa[16,18,24]trien]-15′-one 13′,13′-dioxide], the IC50 was determined as 164 nM.

The record behind these values is patent US11364248B2 (AMGEN INC., priority 2017, dated 2022).
